The values that follow come from patent publication US11168073B2, “3,3-difluoroallylamines or salts thereof and pharmaceutical compositions comprising the same” (YUHAN CORPORATION, priority 2018, dated 2021).

Where a name gives a salt, the structure may show the parent alone. Read-outs that look alike come from different tables or passages of the source. Bounds are passed on as bounds.

Holding throughout (assay type): biochemical
In assay [1] the target is T1, recombinant human MAO-A (monoamine oxidase-A) (Homo sapiens, UniProt P21397).
T1 construct: purchased Sigma-Aldrich
T1 sequence (P21397 1-527): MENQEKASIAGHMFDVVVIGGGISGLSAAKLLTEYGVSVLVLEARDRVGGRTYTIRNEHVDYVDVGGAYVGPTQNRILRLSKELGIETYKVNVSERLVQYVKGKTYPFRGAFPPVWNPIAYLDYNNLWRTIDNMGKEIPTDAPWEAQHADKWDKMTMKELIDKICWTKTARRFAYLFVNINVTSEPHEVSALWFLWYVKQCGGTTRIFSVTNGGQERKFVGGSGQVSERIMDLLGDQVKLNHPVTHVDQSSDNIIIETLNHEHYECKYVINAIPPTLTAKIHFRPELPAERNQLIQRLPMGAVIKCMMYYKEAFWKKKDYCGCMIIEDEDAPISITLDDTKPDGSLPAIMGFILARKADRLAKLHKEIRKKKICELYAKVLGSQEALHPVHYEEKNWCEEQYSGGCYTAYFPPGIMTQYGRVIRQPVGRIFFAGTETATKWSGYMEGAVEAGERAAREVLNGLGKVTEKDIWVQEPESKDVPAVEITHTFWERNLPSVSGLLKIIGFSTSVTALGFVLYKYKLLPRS
Kind of assay: Activity evaluation on recombinant human MAO-A (Amplex Red/HRP-coupled assay, 0.5 mM tyramine substrate). Conditions: read-out: Inhibitory Activity (IC50, nM) MAO-A. As to the method:
(§1) The compounds according to the present technology were evaluated in terms of activity on recombinant human VAP-1 (R&D systems) by measuring the level of hydrogen peroxide in horseradish peroxidase (HRP)-coupled reaction using Amplex Red Hydrogen Peroxide Assay Kit (Molecular Probes, Invitrogen, USA). The experiment was carried out at room temperature using benzylamine as a substrate. In the HRP-coupled reaction, hydrogen peroxide oxidation of 10-acetyl-3,7-dihydroxyphenoxazine (Amplex Red reagent) produces resorufin, which is a highly fluorescent compound. Briefly, the test compound was dissolved in dimethyl sulfoxide (DMSO) at a concentration of 20 mM. The dose-response assessment was made by 1:3 serial dilution in DMSO, thereby creating a 8 point curve. The concentration of the upper part was controlled according to the efficacy of the compounds, followed by the dilution with a reaction buffer solution to obtain a final DMSO concentration of less than 1%. To each well of a 96 black well plate, human VAP-1 purified in 50 mM sodium phosphate buffer solution (pH7.4) was added. The test compounds dissolved in DMSO were incubated with the human VAP-1 enzymes at 37° C. for 30 minutes. After 30-minute incubation, each well was added with a reaction mixture containing 200 uM Amplex Red reagent prepared from 50 mM sodium phosphate buffer solution (pH 7.4), 1 mM benzylamine, and 1 U/mL HRP. Fluorescence intensity was measured at several time points during 1-2 hours using a microplate reader (Flexstation3, Molecular Devices) under the wavelength condition exciting at 544 nm and reading the emission at 590 nm. The inhibitory effect of the compounds was measured as a decrease (%) in the signal rate as compared to the control group without any inhibitor (only diluted DMSO). Data was fixed to a logistic model with four variables and IC50 value was calculated using GraphPad Prism program.
(§2) In addition, the compounds according to the present technology were evaluated in terms of activity on a recombinant human MAO-A (monoamine oxidase-A, Sigma-Aldrich) and a recombinant human MAO-B (monoamine oxidase-B, Sigma-Aldrich) by using as substrates, 0.5 mM tyramine and 1 mM benzylamine, respectively, with a method similar to the activity evaluation method for recombinant human VAP-1. The compounds according to the present technology were also evaluated in terms of activity on a recombinant human DAO (diamine oxidase, R&D systems) by using as a substrate 1 mM putrescine with a method similar to the activity evaluation method for recombinant human VAP-1.

In assay [2] the target is T2, recombinant human DAO (diamine oxidase) (Homo sapiens, UniProt P19801).
T2 construct: purchased R&D systems
T2 sequence (P19801 20-751): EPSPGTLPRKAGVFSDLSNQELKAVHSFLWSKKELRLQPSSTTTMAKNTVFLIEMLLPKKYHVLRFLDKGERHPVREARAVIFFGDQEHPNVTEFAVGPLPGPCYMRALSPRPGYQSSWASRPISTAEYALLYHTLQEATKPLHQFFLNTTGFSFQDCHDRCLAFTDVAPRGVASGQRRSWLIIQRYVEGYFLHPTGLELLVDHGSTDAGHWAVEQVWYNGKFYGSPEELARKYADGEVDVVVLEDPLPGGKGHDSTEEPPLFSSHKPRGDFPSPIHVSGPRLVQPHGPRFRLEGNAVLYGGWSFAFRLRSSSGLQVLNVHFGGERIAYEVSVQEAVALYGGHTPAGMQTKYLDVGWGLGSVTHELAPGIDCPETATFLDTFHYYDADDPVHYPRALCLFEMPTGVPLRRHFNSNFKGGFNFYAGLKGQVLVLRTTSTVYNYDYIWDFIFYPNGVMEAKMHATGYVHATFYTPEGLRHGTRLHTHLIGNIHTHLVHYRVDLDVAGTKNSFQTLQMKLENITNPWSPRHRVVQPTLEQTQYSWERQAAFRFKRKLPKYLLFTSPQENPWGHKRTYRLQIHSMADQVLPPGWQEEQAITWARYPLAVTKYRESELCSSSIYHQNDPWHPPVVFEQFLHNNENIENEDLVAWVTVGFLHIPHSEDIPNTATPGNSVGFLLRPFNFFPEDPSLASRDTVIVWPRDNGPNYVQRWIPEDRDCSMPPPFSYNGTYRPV
Kind of assay: Activity evaluation on recombinant human DAO (Amplex Red/HRP-coupled assay, 1 mM putrescine substrate). Conditions: read-out: Inhibitory Activity (IC50, nM) DAO. The method, then: as §1, §2

Assay [3] concerns the target T3, recombinant human MAO-B (monoamine oxidase-B) (Homo sapiens, UniProt P27338).
T3 construct: purchased Sigma-Aldrich
T3 sequence (P27338 1-520): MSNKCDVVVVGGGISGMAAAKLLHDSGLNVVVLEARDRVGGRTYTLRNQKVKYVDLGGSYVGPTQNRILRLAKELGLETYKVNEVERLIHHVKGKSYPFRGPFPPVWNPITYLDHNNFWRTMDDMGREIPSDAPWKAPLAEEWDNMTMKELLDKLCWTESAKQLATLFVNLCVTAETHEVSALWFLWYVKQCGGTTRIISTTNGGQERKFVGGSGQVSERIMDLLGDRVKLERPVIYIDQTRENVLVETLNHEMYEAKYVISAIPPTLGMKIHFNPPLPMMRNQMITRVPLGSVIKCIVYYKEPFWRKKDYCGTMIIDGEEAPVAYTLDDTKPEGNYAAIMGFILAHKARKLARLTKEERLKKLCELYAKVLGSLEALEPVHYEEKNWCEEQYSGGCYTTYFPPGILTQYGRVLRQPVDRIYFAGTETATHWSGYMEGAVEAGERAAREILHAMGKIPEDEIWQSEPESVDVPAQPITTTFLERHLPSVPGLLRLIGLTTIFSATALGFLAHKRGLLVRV
The assay can be described thus: Activity evaluation on recombinant human MAO-B (Amplex Red/HRP-coupled assay, 1 mM benzylamine substrate). As to conditions: read-out: Inhibitory Activity (IC50, nM) MAO-B. The method, then:
as §1, §2

Another assay has as its target T4, recombinant human VAP-1 (Homo sapiens, UniProt Q16853).
T4 construct: purchased R&D systems
T4 sequence (Q16853 1-763): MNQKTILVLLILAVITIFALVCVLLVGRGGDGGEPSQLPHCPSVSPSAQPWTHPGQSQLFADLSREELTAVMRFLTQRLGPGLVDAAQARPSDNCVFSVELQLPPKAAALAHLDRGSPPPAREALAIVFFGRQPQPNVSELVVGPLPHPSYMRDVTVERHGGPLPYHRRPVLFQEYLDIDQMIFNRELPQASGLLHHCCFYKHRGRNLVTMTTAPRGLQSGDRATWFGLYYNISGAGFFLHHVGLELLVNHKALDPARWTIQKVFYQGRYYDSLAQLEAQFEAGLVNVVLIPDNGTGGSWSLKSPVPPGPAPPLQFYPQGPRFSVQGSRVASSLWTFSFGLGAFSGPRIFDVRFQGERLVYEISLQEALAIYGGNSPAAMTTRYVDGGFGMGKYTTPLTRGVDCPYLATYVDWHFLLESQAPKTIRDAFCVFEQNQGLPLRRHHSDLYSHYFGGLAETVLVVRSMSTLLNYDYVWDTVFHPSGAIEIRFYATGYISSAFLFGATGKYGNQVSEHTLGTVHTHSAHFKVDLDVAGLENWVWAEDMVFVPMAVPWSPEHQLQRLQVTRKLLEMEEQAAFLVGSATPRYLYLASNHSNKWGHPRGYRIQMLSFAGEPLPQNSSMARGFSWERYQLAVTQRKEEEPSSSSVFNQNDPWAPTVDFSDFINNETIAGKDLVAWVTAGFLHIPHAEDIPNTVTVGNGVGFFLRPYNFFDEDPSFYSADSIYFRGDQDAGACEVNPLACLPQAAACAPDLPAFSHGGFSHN
The assay can be described thus: Activity evaluation on recombinant human VAP-1 (Amplex Red/HRP-coupled hydrogen peroxide assay, benzylamine substrate). Conditions: read-out: Inhibitory Activity (IC50, nM) human VAP-1. The method, then:
as §1

Where [4] appears, read: recombinant human VAP-1, 30 min preincubation at 37° C., 1 mM benzylamine.
Where [5] appears, read: recombinant human VAP-1, benzylamine substrate.

`CN1C(=O)CCc2cc(-c3ccc(CCn4cnn(CC(CN)=C(F)F)c4=O)s3)ccc21` [Example 179, 6-[5-[2-[1-[2-(aminomethyl)-3,3-difluoro-allyl]-5-oxo-1,2,4-triazol-4-yl]ethyl]-2-thienyl]-1-methyl-3,4-dihydroquinolin-2-one Trifluoroacetate]: the half-inhibitory concentration (IC50) in assay [1] (0.5 mM tyramine) was above 100000 nM; in assay [2] (1 mM putrescine), 290 nM; in assay [3] (1 mM benzylamine), above 100000 nM; at recombinant human VAP-1 (setting [4]), 0.3 nM.

`CS(=O)(=O)c1ccc(-c2cc(-n3cnn(CC(CN)=C(F)F)c3=O)ccn2)cc1` [Example 61, 2-[2-(aminomethyl)-3,3-difluoro-allyl]-4-[2-(4-methylsulfonylphenyl)-4-pyridyl]-1,2,4-triazol-3-one Trifluoroacetate]: the IC50 in assay [1] (0.5 mM tyramine) was above 100000 nM; in assay [2] (1 mM putrescine), 19 nM; in assay [3] (1 mM benzylamine), 14000 nM; on recombinant human VAP-1 (setting [4]) it was 0.7 nM.

Regarding `Cc1cc(-c2cccc(-c3cc[nH]n3)c2)cnc1-n1cnn(CC(CN)=C(F)F)c1=O` [Example 232, 2-[2-(aminomethyl)-3,3-difluoro-allyl]-4-[3-methyl-5-[3-(1H-pyrazol-3-yl)phenyl]-2-pyridyl]-1,2,4-triazol-3-one Trifluoroacetate], the IC50 in assay [1] (0.5 mM tyramine substrate) is above 100000 nM; in assay [2] (1 mM putrescine substrate), 15000 nM; in assay [3] (1 mM benzylamine substrate), 1100 nM; on recombinant human VAP-1 (setting [5]) it was 0.5 nM.

`NCC(Cn1ncn(Cc2ccc(-c3ccc4nonc4c3)s2)c1=O)=C(F)F` [Example 129, 2-[2-(aminomethyl)-3,3-difluoro-allyl]-4-[[5-(2,1,3-benzoxadiazol-5-yl)-2-thienyl]methyl]-1,2,4-triazol-3-one Trifluoroacetate]: the 50% inhibitory concentration (IC50) is above 100000 nM in assay [1] (0.5 mM tyramine), 21000 nM in assay [2] (1 mM putrescine), 311 nM in assay [3] (1 mM benzylamine) and 0.7 nM on recombinant human VAP-1 (setting [4]).

Turning to `Cc1cc(-c2ccc(Cn3cnn(CC(CN)=C(F)F)c3=O)cc2)cc2c1NC(=O)CC2` [Example 269, 6-[4-[[1-[2-(aminomethyl)-3,3-difluoro-allyl]-5-oxo-1,2,4-triazol-4-yl]methyl]phenyl]-8-methyl-3,4-dihydro-1H-quinolin-2-one Trifluoroacetate], the IC50 is above 100000 nM in assay [1] (0.5 mM tyramine substrate), 71000 nM in assay [2] (1 mM putrescine substrate), above 100000 nM in assay [3] (1 mM benzylamine substrate) and 1 nM on recombinant human VAP-1 (setting [5]).

As for `CCn1cc(-c2ccc(CCn3cnn(CC(CN)=C(F)F)c3=O)s2)cn1` [Example 180, 2-[2-(aminomethyl)-3,3-difluoro-allyl]-4-[2-[5-(1-ethylpyrazol-4-yl)-2-thienyl]ethyl]-1,2,4-triazol-3-one Trifluoroacetate], the IC50 is above 100000 nM in assay [1] (0.5 mM tyramine), 1900 nM in assay [2] (1 mM putrescine), 61000 nM in assay [3] (1 mM benzylamine) and 0.6 nM at recombinant human VAP-1 (setting [4]).

For `CN(C)c1ccc(C#Cc2ccc(Cn3cnn(CC(CN)=C(F)F)c3=O)s2)cn1` [Example 162, 2-[2-(aminomethyl)-3,3-difluoro-allyl]-4-[[5-[2-[6-(dimethylamino)-3-pyridyl]ethynyl]-2-thienyl]methyl]-1,2,4-triazol-3-one Trifluoroacetate], the IC50 in assay [1] (0.5 mM tyramine) is above 10000 nM; in assay [2] (1 mM putrescine) it was above 10000 nM; on recombinant human VAP-1 (setting [4]), 0.7 nM.

As for `NCC(Cn1ncn(-c2ccc(Br)nc2)c1=O)=C(F)F` [Example 7, 2-[2-(aminomethyl)-3,3-difluoro-allyl]-4-(6-bromo-3-pyridyl)-1,2,4-triazol-3-one Trifluoroacetate], the results for the IC50 (in assay [1] (0.5 mM tyramine); in assay [3] (1 mM benzylamine); at recombinant human VAP-1 (setting [4])) were above 100000 nM, 6100 nM and 9.4 nM, respectively.

`CN(C)c1ncc(-c2ccc(Cn3cnn(CC(CN)=C(F)F)c3=O)s2)cc1F` [Example 115, 2-[2-(aminomethyl)-3,3-difluoro-allyl]-4-[[5-[6-(dimethylamino)-5-fluoro-3-pyridyl]-2-thienyl]methyl]-1,2,4-triazol-3-one Trifluoroacetate]: the IC50 in assay [1] (0.5 mM tyramine) was above 100000 nM; in assay [2] (1 mM putrescine), 11000 nM; on recombinant human VAP-1 (setting [4]), 0.8 nM.

By IC50 is commonly meant the concentration that gives 50% inhibition.
